Data set [1] can be described thus: Citric acid administration in bilaterally nephrectomized rats. To be noted: male, CD(SD), rat, plasma, intravenous, 0.25 mL/h of 4.5% (w/v) sodium citrate solution for 4 h.
Data set [2] relates to bilaterally nephrectomized rats. The data set is described as above. To be noted: third group, 4.5% (w/v) sodium citrate solution by CVC 0.25 mL/h for 4 hours.
Data set [3] can be described thus: Citric acid administration in a dialysis session in bilateral-kidney-extirpated rats. To be noted: male, CD(SD), rat, plasma, intravenous.
Data set [4] concerns bilateral-kidney-extirpated rats. Described as above.

Structures are written as SMILES. Counter-ions that a name gives are not always drawn.

With `O=C(O)CC(O)(CC(=O)O)C(=O)O` [citric acid, sodium citrate], the figures for the concentration at 4 h in data set [1] and in data set [3] were 211 ± 132 µg/mL and 265 µg/mL, respectively. The “difference of plasma iron concentrations between before and after administration” value in data set [2] was 14 to 18 µg/dL; in data set [4] (third group, 4.5% (w/v) sodium citrate solution by CVC 1.0 mL/h during 4 h dialysis with commercial dialysate), 81 µg/dL. Also, the “difference of plasma iron concentrations relative to that of second group (saline)” value in data set [4] (third group versus second group, during 4 h dialysis) is “about 4 times”.

Values taken from US20130131179A1, “IRON METABOLISM-IMPROVING AGENT” (Ajinomoto Co., Inc., priority 2006, published 2013).
